What all share (assay): Minimal Inhibitory Concentration by Microtitration, dilution in TSB
Assay type in all cases: cell-based

Test [1] has as its system Pseudomonas aeruginosa BRK 12-4-4. The note with it: BRK1244, TSB (Trypticase soy broth). The text has this:
(§1) Minimal Inhibitory Concentration by Microtitration (μg/ml)
(§2) Dilution in TSB (Trypticase soy broth).

Test [2] relates to Enterobacter cloacae IMM-11. To be noted: IMM11, TSB (Trypticase soy broth).
Excerpt: as §1, §2

For test [3], the system named is Pseudomonas aeruginosa UI-18. The note with it: UI18, TSB (Trypticase soy broth).
Excerpt: as §1, §2

The test system of test [4] is Klebsiella pneumoniae MGH-2. The note with it: MGH2, TSB (Trypticase soy broth).
Excerpt: as §1, §2

In test [5] the test system is Serratia marcescens IMM-16. The note with it: IMM16, TSB (Trypticase soy broth).
Excerpt: as §1, §2

Converted amounts (≈) assume the structure as drawn.

These results are taken from patent US4278681A, “Antibacterial amide compounds and means for using the same” (Warner-Lambert Co., priority 1980, dated 1981).

In the case of `CC(=O)O[C@@H]1C[C@H](C(=O)Nc2ccc(-c3ccc(C(=O)N[C@@H](C(=O)N[C@@H]4C(=O)N5[C@@H]4SC(C)(C)[C@@H]5C(=O)O)c4ccc(O)cc4)c(=O)[nH]3)cc2)N(C(C)=O)C1`, the MIC in test [1] was 6.3 µg/mL (≈ 8.13 µM); in test [2], 12.5 µg/mL (≈ 16.1 µM); in test [3], 3.1 µg/mL (≈ 4 µM); in test [4] it was 25 µg/mL (≈ 32.3 µM); in test [5] it was 12.5 µg/mL (≈ 16.1 µM).
For `CC(=O)N1CC=CC1C(=O)Nc1ccc(-c2ccc(C(=O)N[C@@H](C(=O)N[C@@H]3C(=O)N4[C@@H]3SC(C)(C)[C@@H]4C(=O)O)c3ccc(O)cc3)c(=O)[nH]2)cc1` (some centres unmarked), the MIC in test [1] was determined as 3.1 µg/mL (≈ 4.34 µM); in test [2], 6.3 µg/mL (≈ 8.81 µM); in test [3], 3.1 µg/mL (≈ 4.34 µM); in test [4] it was 12.5 µg/mL (≈ 17.5 µM); in test [5], 12.5 µg/mL (≈ 17.5 µM).
As to `CC(=O)NCCCC(=O)Nc1ccc(-c2ccc(C(=O)N[C@@H](C(=O)N[C@@H]3C(=O)N4[C@@H]3SC(C)(C)[C@@H]4C(=O)O)c3ccc(O)cc3)c(=O)[nH]2)cc1`, the MIC in test [1] was 3.1 µg/mL (≈ 4.4 µM); in test [2] it was 6.3 µg/mL (≈ 8.94 µM); in test [3], 1.6 µg/mL (≈ 2.27 µM); in test [4] it was 3.1 µg/mL (≈ 4.4 µM); in test [5], 3.1 µg/mL (≈ 4.4 µM).
For `COC1C[C@@H](C(=O)Nc2ccc(-c3ccc(C(=O)N[C@@H](C(=O)N[C@@H]4C(=O)N5[C@@H]4SC(C)(C)[C@@H]5C(=O)O)c4ccc(O)cc4)c(=O)[nH]3)cc2)N(C(C)=O)C1` (some centres unmarked), the minimum inhibitory concentration (MIC) in test [1] came out at 6.3 µg/mL (≈ 8.44 µM); in test [2], 12.5 µg/mL (≈ 16.7 µM); in test [3], 3.1 µg/mL (≈ 4.15 µM); in test [4], 25 µg/mL (≈ 33.5 µM); in test [5], 12.5 µg/mL (≈ 16.7 µM).
As to `CC(=O)OC1C[C@@H](C(=O)Nc2ccc(-c3ccc(C(=O)N[C@@H](C(=O)N[C@@H]4C(=O)N5[C@@H]4SC(C)(C)[C@@H]5C(=O)O)c4ccc(O)cc4)c(=O)[nH]3)cc2)N(C(C)=O)C1` (some centres unmarked), the MIC in test [1] is 1.6 µg/mL (≈ 2.07 µM); in test [2] it was 6.3 µg/mL (≈ 8.13 µM); in test [3], 1.6 µg/mL (≈ 2.07 µM); in test [4] it was 12.5 µg/mL (≈ 16.1 µM); in test [5] it was 6.3 µg/mL (≈ 8.13 µM).
On to `CC1(C)S[C@@H]2[C@H](NC(=O)[C@H](NC(=O)c3ccc(-c4ccc(NC(=O)[C@@H]5CCC(=O)N5)cc4)[nH]c3=O)c3ccc(O)cc3)C(=O)N2[C@H]1C(=O)O`, for which the MIC amounted to 1.6 µg/mL (≈ 2.32 µM) in test [1]; 1.6 µg/mL (≈ 2.32 µM) in test [2]; 3.1 µg/mL (≈ 4.5 µM) in test [3]; 6.3 µg/mL (≈ 9.15 µM) in test [4]; 3.1 µg/mL (≈ 4.5 µM) in test [5].
On to `CC(=O)N1CCC[C@H]1C(=O)Nc1ccc(-c2ccc(C(=O)N[C@@H](C(=O)N[C@@H]3C(=O)N4[C@@H]3SC(C)(C)[C@@H]4C(=O)O)c3ccc(O)cc3)c(=O)[nH]2)cc1`, for which the MIC in test [1] is 1.6 µg/mL (≈ 2.23 µM); in test [2] it was 6.3 µg/mL (≈ 8.79 µM); in test [3], 1.6 µg/mL (≈ 2.23 µM); in test [4] it was 12.5 µg/mL (≈ 17.4 µM); in test [5] it was 6.3 µg/mL (≈ 8.79 µM).
In the case of `CN1C(=O)CC[C@H]1C(=O)Nc1ccc(-c2ccc(C(=O)N[C@@H](C(=O)N[C@@H]3C(=O)N4[C@@H]3SC(C)(C)[C@@H]4C(=O)O)c3ccc(O)cc3)c(=O)[nH]2)cc1`, the MIC in test [1] came out at 1.6 µg/mL (≈ 2.28 µM); in test [2] it was 3.1 µg/mL (≈ 4.41 µM); in test [3], 0.8 µg/mL (≈ 1.14 µM); in test [4], 6.3 µg/mL (≈ 8.96 µM); in test [5] it was 6.3 µg/mL (≈ 8.96 µM).
`CC(=O)N1CC(O)C[C@H]1C(=O)Nc1ccc(-c2ccc(C(=O)N[C@@H](C(=O)N[C@@H]3C(=O)N4[C@@H]3SC(C)(C)[C@@H]4C(=O)O)c3ccc(O)cc3)c(=O)[nH]2)cc1` (some centres unmarked): the MIC was 3.1 µg/mL (≈ 4.23 µM) in test [1]; 3.1 µg/mL (≈ 4.23 µM) in test [2]; 1.6 µg/mL (≈ 2.18 µM) in test [3]; 12.5 µg/mL (≈ 17.1 µM) in test [4]; 6.3 µg/mL (≈ 8.6 µM) in test [5].
For `C[C@H](NC=O)C(=O)Nc1ccc(-c2ccc(C(=O)N[C@@H](C(=O)N[C@@H]3C(=O)N4[C@@H]3SC(C)(C)[C@@H]4C(=O)O)c3ccc(O)cc3)c(=O)[nH]2)cc1`, the minimal inhibitory concentration (MIC) was 1.6 µg/mL (≈ 2.36 µM) in test [1]; 3.1 µg/mL (≈ 4.58 µM) in test [2]; 1.6 µg/mL (≈ 2.36 µM) in test [3]; 6.3 µg/mL (≈ 9.31 µM) in test [4]; 3.1 µg/mL (≈ 4.58 µM) in test [5].
Take `CC(=O)N1CC(OC=O)C[C@H]1C(=O)Nc1ccc(-c2ccc(C(=O)N[C@@H](C(=O)N[C@@H]3C(=O)N4[C@@H]3SC(C)(C)[C@@H]4C(=O)O)c3ccc(O)cc3)c(=O)[nH]2)cc1` (some centres unmarked): the MIC in test [1] is 0.8 µg/mL (≈ 1.05 µM); in test [2], 1.6 µg/mL (≈ 2.1 µM); in test [3], 0.8 µg/mL (≈ 1.05 µM); in test [4] it was 6.3 µg/mL (≈ 8.28 µM); in test [5] it was 6.3 µg/mL (≈ 8.28 µM).
Take `CC(=O)N1CC(=O)C[C@H]1C(=O)Nc1ccc(-c2ccc(C(=O)N[C@@H](C(=O)N[C@@H]3C(=O)N4[C@@H]3SC(C)(C)[C@@H]4C(=O)O)c3ccc(O)cc3)c(=O)[nH]2)cc1`: the minimal inhibitory concentration (MIC) was 6.3 µg/mL (≈ 8.62 µM) in test [1]; 12.5 µg/mL (≈ 17.1 µM) in test [2]; 3.1 µg/mL (≈ 4.24 µM) in test [3]; 25 µg/mL (≈ 34.2 µM) in test [4]; 12.5 µg/mL (≈ 17.1 µM) in test [5].
Take `CC(=O)N[C@@H](CCC(N)=O)C(=O)Nc1ccc(-c2ccc(C(=O)N[C@@H](C(=O)N[C@@H]3C(=O)N4[C@@H]3SC(C)(C)[C@@H]4C(=O)O)c3ccc(O)cc3)c(=O)[nH]2)cc1`: the minimum inhibitory concentration (MIC) was found to be 3.1 µg/mL (≈ 4.15 µM) in test [1]; 3.1 µg/mL (≈ 4.15 µM) in test [2]; 1.6 µg/mL (≈ 2.14 µM) in test [3]; 12.5 µg/mL (≈ 16.7 µM) in test [4]; 3.1 µg/mL (≈ 4.15 µM) in test [5].
As for `C[C@H](NC(N)=O)C(=O)Nc1ccc(-c2ccc(C(=O)N[C@@H](C(=O)N[C@@H]3C(=O)N4[C@@H]3SC(C)(C)[C@@H]4C(=O)O)c3ccc(O)cc3)c(=O)[nH]2)cc1`, the MIC was determined as 1.6 µg/mL (≈ 2.31 µM) in test [1]; 6.3 µg/mL (≈ 9.11 µM) in test [2]; 1.6 µg/mL (≈ 2.31 µM) in test [3]; 6.3 µg/mL (≈ 9.11 µM) in test [4]; 3.1 µg/mL (≈ 4.48 µM) in test [5].
Regarding `CC1(C)S[C@@H]2[C@H](NC(=O)[C@H](NC(=O)c3ccc(-c4ccc(NC(=O)CN5CCCC5=O)cc4)[nH]c3=O)c3ccc(O)cc3)C(=O)N2[C@H]1C(=O)O`, the MIC worked out at 3.1 µg/mL (≈ 4.41 µM) in test [1]; 3.1 µg/mL (≈ 4.41 µM) in test [2]; 3.1 µg/mL (≈ 4.41 µM) in test [3]; 6.3 µg/mL (≈ 8.96 µM) in test [4]; 6.3 µg/mL (≈ 8.96 µM) in test [5].
Consider `CC(=O)NCCCC[C@H](NC(C)=O)C(=O)Nc1ccc(-c2ccc(C(=O)N[C@@H](C(=O)N[C@@H]3C(=O)N4[C@@H]3SC(C)(C)[C@@H]4C(=O)O)c3ccc(O)cc3)c(=O)[nH]2)cc1`, for which the MIC in test [1] was 6.3 µg/mL (≈ 7.98 µM); in test [2], 12.5 µg/mL (≈ 15.8 µM); in test [3], 6.3 µg/mL (≈ 7.98 µM); in test [4], 25 µg/mL (≈ 31.7 µM); in test [5] it was 50 µg/mL (≈ 63.3 µM).
`CC(=O)N[C@@H](C)C(=O)N[C@@H](C)C(=O)Nc1ccc(-c2ccc(C(=O)N[C@@H](C(=O)N[C@@H]3C(=O)N4[C@@H]3SC(C)(C)[C@@H]4C(=O)O)c3ccc(O)cc3)c(=O)[nH]2)cc1`: the MIC in test [1] is 6.3 µg/mL (≈ 8.27 µM); in test [2], 12.5 µg/mL (≈ 16.4 µM); in test [3], 3.1 µg/mL (≈ 4.07 µM); in test [4], 25 µg/mL (≈ 32.8 µM); in test [5], 6.3 µg/mL (≈ 8.27 µM).
Turning to `CC(=O)N[C@@H](C)C(=O)Nc1ccc(-c2ccc(C(=O)N[C@@H](C(=O)N[C@@H]3C(=O)N4[C@@H]3SC(C)(C)[C@@H]4C(=O)O)c3ccc(O)cc3)c(=O)[nH]2)cc1`, the MIC in test [1] turned out to be 1.6 µg/mL (≈ 2.32 µM); in test [2] it was 1.6 µg/mL (≈ 2.32 µM); in test [3], 0.8 µg/mL (≈ 1.16 µM); in test [4] it was 3.1 µg/mL (≈ 4.49 µM); in test [5] it was 3.1 µg/mL (≈ 4.49 µM).
Turning to `CCC(=O)OC1C[C@@H](C(=O)Nc2ccc(-c3ccc(C(=O)N[C@@H](C(=O)N[C@@H]4C(=O)N5[C@@H]4SC(C)(C)[C@@H]5C(=O)O)c4ccc(O)cc4)c(=O)[nH]3)cc2)N(C(C)=O)C1` (some centres unmarked), the MIC in test [1] came to 3.1 µg/mL (≈ 3.93 µM); in test [2], 6.3 µg/mL (≈ 7.99 µM); in test [3] it was 1.6 µg/mL (≈ 2.03 µM); in test [4] it was 12.5 µg/mL (≈ 15.8 µM); in test [5] it was 6.3 µg/mL (≈ 7.99 µM).

In general, MIC refers to the lowest concentration found to suppress growth. The low end stands for greater potency, the high end for weaker potency.
